Key:
S1P1 and S1P3 Receptor = experiment: Tyrosine/serine/threonine phosphorylation of S1P receptors; format: cell-based, human; settings: 100 nM HA
Method: Determination of Tyrosine/Serine/Threonine Phosphorylation of the S1P1 and S1P3 Receptor—Immunoprecipitation of solubilized proteins in IP buffer B (see above) took place with either rabbit anti-S1P1 receptor or mouse anti-S1P3 receptor antibody, which was followed by SDS-PAGE in 4-15% polyacrylamide gels and transfer onto Immobilon™ membranes (Millipore Corp., Bedford, Mass.). Following blockage of nonspecific sites with 5% bovine serum albumin, the blots were incubated with either rabbit anti-S1P1 antibody, mouse anti-S1P3 antibody, mouse anti-phospho-tyrosine, rabbit anti-phospho-serine antibody or rabbit anti-phospho-threonine antibody, and then incubated with horseradish peroxidase (HRP)-labeled goat anti-rabbit or goat anti-mouse IgG. Enhanced chemiluminescence (Amersham Biosciences) for visualization of immunoreactive bands then took place.

HPMVEC = experiment: EC proliferation (CellTiter96 MTS); format: cell-based, human; settings: 100 nM HA with or without 100 nM VEGF, or siRNA 48 hours then VEGF; 24 h
Method: Determination of the role of HMW-HA/CD44 interactions in regulating hyaluronidase activity and angiogenesis in vitro. Human pulmonary microvascular EC (HPMVEC) (Cambrex), grown in EBM-2 complete medium (Cambrex) at 37° C. in a humidified atmosphere of 5% CO2, 95% air, with passages 6-10 used for experimentation was treated with or without 100 nM HMW-HA and/or 100 nM VEGF in the presence or absence of CD44 isoform-specific blocking antibodies (EMD Biosciences), siRNA (scramble, CD44, Hyal-1, Hyal-2, Hyal-3 or Hyal-4) and the potent hyaluronidase inhibitor, L-ascorbic acid 6-hexadecanoate (Botzki et al., 2004) (Sigma). […] Treated EC will either be analyzed for protein expression, hyaluronidase activity or VEGF-induced proliferation, migration or tube formation. […] Cells from the upper and lower chamber were quantitated using the CellTiter96™ MTS assay (Promega, San Luis Obispo, Calif.) and read at 492 nm. % migration was defined as the # of cells in the lower chamber […] the number of cells in both the upper and lower chamber. Each assay was set up in triplicate, repeated at least five times and analyzed statistically by Student's t test (with statistical significance set at P<0.05). […] The in vitro cell proliferation assay was analyzed by measuring increases in cell number using the CellTiter96™ MTS assay (Promega, San Luis Obispo, Calif.) and read at 492 nm. […]

Human pulmonary EC = experiment: TER, HABP2/C1INH regulation of EC barrier function (Examples 3 and 6); format: cell-based; settings: 100 nM HA or 10 μg/ml purified HABP2
Method: Measurement of transendothelial monolayer electrical resistance (TER). EC were grown to confluence in polycarbonate wells containing evaporated gold microelectrodes, and TER measurements performed using an electrical cell-substrate impedance sensing system obtained from Applied Biophysics (Troy, N.Y.) as previously described in detail (Garcia et al. 2001). TER values from each microelectrode were pooled at discrete time points and plotted versus time as the mean±S.E.
Determination of EC barrier function. Human pulmonary endothelial cells were grown to confluence in polycarbonate wells containing evaporated gold microelectrodes (surface area, 10-3 cm^2) in series with a large gold counter electrode (1 cm^2) connected to a phase-sensitive lock-in amplifier as described previously. Measurements of transendothelial electrical resistance (TER) were performed using an electrical cell-substrate impedance sensing system (ECIS) (Applied BioPhysics Inc.). Briefly, current was applied across the electrodes by a 4,000-Hz AC voltage source with amplitude of 1 V in series with a 1 MS/resistance to approximate a constant current source (˜1 μA). The in-phase and out-of-phase voltages between the electrodes were monitored in real time with the lock-in amplifier and subsequently converted to scalar measurements of transendothelial impedance, of which resistance was the primary focus. TER was monitored for 30 minutes to establish a baseline resistance (R0) which, for pulmonary endothelium, was typically between 8 to 12×10^3Ω (wells with R0<7×10^3Ω were rejected). As cells adhere and spread out on the microelectrode, TER increases (maximal at confluence), whereas cell retraction, rounding, or loss of adhesion was reflected by a decrease in TER. These measurements provide a highly sensitive biophysical assay that indicates the state of cell shape and focal adhesion. Values from each microelectrode were pooled at discrete time points and plotted versus time as the mean±SE of the mean (Garcia et al., 2001).

[1] = system: Human pulmonary artery EC; experiment: Transendothelial electrical resistance (TER) of HA-treated EC monolayers, Example 1; format: cell-based; settings: for change in transmonolayer electrical resistance (TER): 1 nM, 10 nM or 100 nM HA, serum starved EC; for effect of pretreatment of HA by boiling or proteinase K digestion on HA-induced EC TER: HA boiled or proteinase K digested; for effect of hyaluronidase SD treatment of HA on HA-induced EC TER: HA treated with hyaluronidase SD
Method: Measurement of TransEC Electrical Resistance (TER)—EC were grown to confluence in polycarbonate wells containing evaporated gold microelectrodes. TER measurements were performed using an electrical cell-substrate impedance sensing system (Applied Biophysics, Troy, N.Y.) as described (Garcia et al., 2001). TER values from each microelectrode were pooled at discrete time points and plotted versus time as the mean±S.E.

Row | effect of pretreatment of HA by boiling or proteinase K digestion on HA-induced EC TER [1] | effect of hyaluronidase SD treatment of HA on HA-induced EC TER ([1]; listed as High MW HA) | effect of hyaluronidase SD treatment of HA on HA-induced EC TER ([1]; listed as Low MW HA) | Substance | S1P receptor phosphorylation (S1P1 and S1P3 Receptor) | EC proliferation (% Proliferation) (HPMVEC) | change in TER / EC barrier function (Human pulmonary EC; listed as High MW hyaluronan) | change in transmonolayer electrical resistance (TER) [1] | change in TER / EC barrier function (Human pulmonary EC; listed as low MW hyaluronan)
1 | little effect | blocked the effects of High MW HA | – | hyaluronan [HMW-HA] | promoted AKT1-mediated threonine phosphorylation of S1P1 receptor | inhibited VEGF-induced hyaluronidase expression, EC proliferation (A) and migration (B) | increased transendothelial monolayer electrical resistance (TER) | gradual and sustained rise in transmonolayer electrical resistance (TER) in a dose-dependent fashion | –
2 | little effect | – | blocked the effects of Low MW HA | hyaluronan [LMW-HA, reference compound] | induced sequential AKT1-mediated S1P1 and Src/ROCK1/2-mediated S1P3 receptor phosphorylation/activation | promotes EC proliferation and migration | – | biphasic changes in TER with an initial rapid increase in barrier enhancement followed by significant and prolonged barrier disruption | induced negative TER changes ultimately resulting in EC barrier disruption
